Data taken from patent US9464055B2, “Quinoline derivatives useful as CB-1 inverse agonists” (JANSSEN PHARMACEUTICA NV, priority 2014, dated 2016).

molecular target: T1, Human CB2R (Cannabinoid receptor 2) (Homo sapiens, UniProt P34972); assay: CB-2 in vitro cAMP (HTRF) functional assay; assay type: cell-based; details: mean where tested more than once
T1 construct: host or cells: HEK-293
Description: CB1 and CB2 receptors are Gi-coupled GPCR. Activation of CB1 and CB2 receptors results in a decrease in cAMP production. An inverse agonist of the CB1 or CB2 receptor results in the opposite effect, an increase of cAMP production. The principle of this assay is based on HTRF® technology (Homogeneous Time-Resolved Fluorescence). The method is a competitive immunoassay between native cAMP produced by cells and the cAMP labeled with the fluorophore d2. The tracer binding is quantified by a Mab anti-cAMP labeled with Eu3+ TBP-NHS Cryptate (supplied as part of the assay kit). The specific signal (i.e. energy transfer) is inversely proportional to the concentration of cAMP in the standard or sample.
Human CB1R (Cannabinoid receptor 1) was stably transfected in HEK-293 cells (DiscoveRx, cat: 93-0200C1). Human CB2R (Cannabinoid receptor 2) was stably transfected in HEK-293 cells (DiscoveRx, cat: 93-0201C1). Cell cultures were maintained in media: DMEM (Invitrogen Cat#12430-054) supplemented with 10% HI FBS (Invitrogen Cat#16140-071), 1% L-glutamine (Invitrogen Cat#25030-081), 0.2 mg/ml Hygromycin B (Invitrogen Cat#10687-010), 600 μg/mL G418 (Invitrogen Cat#10131-035), and 1× Penn/Strep (Invitrogen 15140-122). After cell expansion, aliquots were cryo-stored in media containing 5% DMSO (Pierce Cat#20684).
One day prior to experiments media was warmed to 37° C. and the cryo-stored cells were thawed in a 37° C. water bath. The cells were then added to media (10× volume) and the mixture was centrifuged at 1000 RPM for 5 min. The supernate was removed and the cells were re-suspended in media. A sample of the cell suspension was evaluated on a Cedex XS automated cell counter (Innovatis Systems) to determine viable cells/ml. Additional media was added to the cells to achieve a final cell density of 4E5 cells/mL. The cells were then plated into 384 well PDL white solid bottom plates (Greiner, Cat#781945) at 20 μL per well using a Multidrop (Thermo Scientific). Cells were removed from Row P (location of cAMP standards). Two columns of cells were plated into a clear bottom 384 well PDL coated plate (Greiner, Cat#781944) to view confluence the day of the assay. The cell plates were lidded and stored for 15 minutes in a hood, then transferred to an incubator (37° C., 5% CO2, 95% humidity) overnight.
DMSO was added to all wells of 384 well V bottom polystyrene plate (Greiner, Cat#781280) except to columns 1 and 13, rows O and P and wells M13-M23 and N13-N23. Test compounds (60 μL, 10 mM) were added to Column 1 and 13 (A1 through N1 and A13 through L13). Test compounds were serially diluted 1/3 by transferring and mixing 20 μl sample with 40 μL DMSO.
DMSO (40 μL) was added to wells of 384 well V bottom polystyrene plate: O2 through O11, M14 through M23, N14 through N23, and O14 through O23. AM630 (also known as [6-iodo-2-methyl-1-[2-(4-morpholinyl)ethyl]-1H-indol-3-yl](4-methoxyphenyl)-methanone, Cayman Chemical, Cat#10006974) (60 μL, 10 mM) was added to O1; and 1-(2,4-dichlorophenyl)-7-[(4-fluorophenyl)methylene]-4,5,6,7-tetrahydro-N-1-piperidinyl-1H-indazole-3-carboxamide (60 μL, 10 mM) was added to N13. The control was serially diluted 1/3 by transferring and mixing 20 μl sample with 40 μL DMSO. This process resulted 11 doses per control, 10 mM to […].
Cells plated the day prior to the assay in clear bottom plates were viewed on an inverse microscope to ensure confluency in the range of 60-75%. […]

T1 sequence (P34972 whole entry): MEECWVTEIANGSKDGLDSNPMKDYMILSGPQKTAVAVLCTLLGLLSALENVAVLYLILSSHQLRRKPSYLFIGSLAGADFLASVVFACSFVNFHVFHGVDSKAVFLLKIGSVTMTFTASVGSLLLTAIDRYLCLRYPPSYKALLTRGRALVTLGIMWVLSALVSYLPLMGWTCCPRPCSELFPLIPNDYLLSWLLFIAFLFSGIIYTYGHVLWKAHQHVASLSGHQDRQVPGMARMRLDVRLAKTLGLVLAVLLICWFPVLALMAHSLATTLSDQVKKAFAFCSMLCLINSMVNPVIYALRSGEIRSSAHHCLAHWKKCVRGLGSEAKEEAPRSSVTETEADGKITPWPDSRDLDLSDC

EC50, > 10 µM:
NC(=O)COc1ccc(Nc2cc(=O)[nH]c3ccc(C(c4ccc(Cl)cc4)c4ccc(Cl)cc4)cc23)cc1 [Compound 111, 2-(4-((6-(bis(4-chlorophenyl)methyl)-2-oxo-1,2-dihydroquinolin-4-yl)amino)phenoxy)acetamide]
CC(C)(C)OC(=O)/N=C(/NC(=O)OC(C)(C)C)N1CCC(Nc2cc(=O)[nH]c3ccc(C(c4ccc(Cl)cc4)c4ccc(Cl)cc4)cc23)CC1 [Compound 119, (Z)-tert-butyl ((4-((6-(bis(4-chlorophenyl)methyl)-2-oxo-1,2-dihydroquinolin-4-yl)amino)piperidin-1-yl)((tert-butoxycarbonyl)imino)methyl)carbamate]
O=C(O)COc1ccc(Nc2cc(=O)[nH]c3ccc(C(c4ccc(Cl)cc4)c4ccc(Cl)cc4)cc23)cc1 [Compound 109, 2-(4-((6-(bis(4-chlorophenyl)methyl)-2-oxo-1,2-dihydroquinolin-4-yl)amino)phenoxy)acetic acid]
CC(C)(C)OC(=O)COc1ccc(Nc2cc(=O)[nH]c3ccc(C(c4ccc(Cl)cc4)c4ccc(Cl)cc4)cc23)cc1 [Compound 105, tert-butyl 2-(4-((6-(bis(4-chlorophenyl)methyl)-2-oxo-1,2-dihydroquinolin-4-yl)amino)phenoxy)acetate]
O=c1cc(NC2CCN(c3ccccc3)CC2)c2cc(C(c3ccc(Cl)cc3)c3ccc(Cl)cc3)ccc2[nH]1 [Compound #60, 6-[bis(4-chlorophenyl)methyl]-4-[(1-phenylpiperidin-4-yl)amino]quinolin-2-ol]
CCS(=O)(=O)N1CCC(Nc2cc(=O)[nH]c3ccc(C(c4ccc(Cl)cc4)c4ccc(Cl)cc4)cc23)CC1 [Compound #56, 6-(bis(4-chlorophenyl)methyl)-4-((1-(ethylsulfonyl)piperidin-4-yl)amino)quinolin-2(1H)-one]
O=c1cc(Nc2cccc(C(F)(F)F)c2)c2cc(C(c3ccc(Cl)cc3)c3ccc(Cl)cc3)ccc2[nH]1 [Compound 75, 6-[Bis(4-chlorophenyl)methyl]-4-{[3-(trifluoromethyl)phenyl]amino}quinolin-2(1H)-one]
COCCOc1ccc(Nc2cc(=O)[nH]c3ccc(C(c4ccc(Cl)cc4)c4ccc(Cl)cc4)cc23)cc1 [Compound 94, 6-[Bis(4-chlorophenyl)methyl]-4-{[4-(2-methoxyethoxy)phenyl]amino}quinolin-2(1H)-one]
O=C(O)Cc1ccc(Nc2cc(=O)[nH]c3ccc(C(c4ccc(Cl)cc4)c4ccc(Cl)cc4)cc23)cc1 [Compound 125, [4-({6-[Bis(4-chlorophenyl)methyl]-2-oxo-1,2-dihydroquinolin-4-yl}amino)phenyl]acetic acid]
NC(=O)CCC(=O)N1CCC(Nc2cc(=O)[nH]c3ccc(C(c4ccc(Cl)cc4)c4ccc(Cl)cc4)cc23)CC1 [Compound 112, 4-[4-({6-[Bis(4-chlorophenyl)methyl]-2-oxo-1,2-dihydroquinolin-4-yl}amino)piperidin-1-yl]-4-oxobutanamide]
O=C(O)CC(=O)N1CCC(Nc2cc(=O)[nH]c3ccc(C(c4ccc(Cl)cc4)c4ccc(Cl)cc4)cc23)CC1 [Compound 96, 3-[4-({6-[Bis(4-chlorophenyl)methyl]-2-oxo-1,2-dihydroquinolin-4-yl}amino)piperidin-1-yl]-3-oxopropanoic acid]
NCCCCNc1cc(C(c2ccc(Cl)cc2)c2ccc(Cl)cc2)cc2c(NC3CCN(S(=O)(=O)C(F)(F)F)CC3)cc(=O)[nH]c12 [Compound 141, 8-((4-aminobutyl)amino)-6-(bis(4-chlorophenyl)methyl)-4-((1-((trifluoromethyl)sulfonyl)piperidin-4-yl)amino)quinolin-2(1H)-one]
COC(=O)c1ccc(Nc2cc(=O)[nH]c3ccc(C(c4ccc(Cl)cc4)c4ccc(Cl)cc4)cc23)cc1 [Compound 85, Methyl 4-({6-[bis(4-chlorophenyl)methyl]-2-oxo-1,2-dihydroquinolin-4-yl}amino)benzoate]
O=c1cc(NCc2ccc(C(F)(F)F)cc2)c2cc(C(c3ccc(Cl)cc3)c3ccc(Cl)cc3)ccc2[nH]1 [Compound 58, 6-[Bis(4-chlorophenyl)methyl]-4-{[4-(trifluoromethyl)benzyl]amino}quinolin-2(1H)-one]
O=c1cc(Nc2ccc(Cl)c(F)c2)c2cc(C(c3ccc(Cl)cc3)c3ccc(Cl)cc3)ccc2[nH]1 [Compound 83, 6-[Bis(4-chlorophenyl)methyl]-4-[(4-chloro-3-fluorophenyl)amino]quinolin-2(1H)-one]
NC(=O)c1ccc(Nc2cc(=O)[nH]c3ccc(C(c4ccc(Cl)cc4)c4ccc(Cl)cc4)cc23)cc1 [Compound 87, 4-({6-[Bis(4-chlorophenyl)methyl]-2-oxo-1,2-dihydroquinolin-4-yl}amino)benzamide]
O=c1cc(NCc2ccc(C(F)(F)F)nc2)c2cc(C(c3ccc(Cl)cc3)c3ccc(Cl)cc3)ccc2[nH]1 [Compound #70, 6-(bis(4-chlorophenyl)methyl)-4-(((6-(trifluoromethyl)pyridin-3-yl)methyl)amino)quinolin-2(1H)-one]
O=C(O)CCCOc1ccc(Nc2cc(=O)[nH]c3ccc(C(c4ccc(Cl)cc4)c4ccc(Cl)cc4)cc23)cc1 [Compound 121, 4-[4-({6-[Bis(4-chlorophenyl)methyl]-2-oxo-1,2-dihydroquinolin-4-yl}amino)phenoxy]butanoic acid]
O=c1cc(NCc2ccc(C(F)(F)F)cn2)c2cc(C(c3ccc(Cl)cc3)c3ccc(Cl)cc3)ccc2[nH]1 [Compound 78, 6-[Bis(4-chlorophenyl)methyl]-4-({[5-(trifluoromethyl)pyridin-2-yl]methyl}amino)quinolin-2(1H)-one]
CC(C)(C)OC(=O)CCN1CCC(Nc2cc(=O)[nH]c3ccc(C(c4ccc(Cl)cc4)c4ccc(Cl)cc4)cc23)CC1 [Compound 114, tert-butyl 3-(4-((6-(bis(4-chlorophenyl)methyl)-2-oxo-1,2-dihydroquinolin-4-yl)amino)piperidin-1-yl)propanoate]
COCCn1c(=O)cc(NC2CCN(S(=O)(=O)C(F)(F)F)CC2)c2cc(C(c3ccc(Cl)cc3)c3ccc(Cl)cc3)ccc21 [Compound 110, 6-(bis(4-chlorophenyl)methyl)-1-(2-methoxyethyl)-4-((1-((trifluoromethyl)sulfonyl)piperidin-4-yl)amino)quinolin-2(1H)-one]
CCOC(=O)CCCNc1cc(C(c2ccc(Cl)cc2)c2ccc(Cl)cc2)cc2c(NC3CCN(S(=O)(=O)C(F)(F)F)CC3)cc(=O)[nH]c12 [Compound 104, Ethyl 4-({6-[bis(4-chlorophenyl)methyl]-2-oxo-4-({1-[(trifluoromethyl)sulfonyl]piperidin-4-yl}amino)-1,2-dihydroquinolin-8-yl}amino)butanoate]
COC(=O)Cc1ccc(Nc2cc(=O)[nH]c3ccc(C(c4ccc(Cl)cc4)c4ccc(Cl)cc4)cc23)cc1 [Compound 124, Methyl [4-({6-[bis(4-chlorophenyl)methyl]-2-oxo-1,2-dihydroquinolin-4-yl}amino)phenyl]acetate]
